Only the 19 paired bases of each siRNA are shown; overhangs and chemistry are not given here.
Also: test concentration or dose not given here.

This data set deals with firefly luciferase. Briefly: five studies, different assays. As to conditions: siRNA.
Turning to “sense CCGCGAACGACAUUUAUAA / antisense UUAUAAAUGUCGUUCGCGG”, the target inhibition amounted to 94.9%.

Regarding “sense CCAAUCAUCCAAAAAAUUA / antisense UAAUUUUUUGGAUGAUUGG”, the target inhibition was 97.5%.

For “sense AGAUCCUCAUAAAGGCCAA / antisense UUGGCCUUUAUGAGGAUCU”, the target inhibition was 78.2%.

On to “sense GUUGUGUUUGUGGACGAAG / antisense CUUCGUCCACAAACACAAC”, for which the target inhibition worked out at 90.1%.

In the case of “sense UGUAAACAAUCCGGAAGCG / antisense CGCUUCCGGAUUGUUUACA”, the target inhibition is 9.91%.

On to “sense CAACCGCGAAAAAGUUGCG / antisense CGCAACUUUUUCGCGGUUG”, for which the target inhibition was -1.3%.

For “sense ACGGAAAAAGAGAUCGUGG / antisense CCACGAUCUCUUUUUCCGU”, the target inhibition was found to be 58.8%.

Take “sense GAUUUCGAGUCGUCUUAAU / antisense AUUAAGACGACUCGAAAUC”: the target inhibition was 98.9%.

On to “sense CCUUCAGGAUUACAAGAUU / antisense AAUCUUGUAAUCCUGAAGG”, for which the target inhibition was 98.9%.

As for “sense GCCGCCGUUGUUGUUUUGG / antisense CCAAAACAACAACGGCGGC”, the target inhibition was found to be 13.8%.

As to “sense GUAACAACCGCGAAAAAGU / antisense ACUUUUUCGCGGUUGUUAC”, the target inhibition is 85.5%.

With “sense CGCCAGUCAAGUAACAACC / antisense GGUUGUUACUUGACUGGCG”, the target inhibition turned out to be 79.5%.

“sense GGUUUUGGAAUGUUUACUA / antisense UAGUAAACAUUCCAAAACC”: the target inhibition was found to be 93.3%.

For “sense UGUUGUUUUGGAGCACGGA / antisense UCCGUGCUCCAAAACAACA”, the target inhibition turned out to be 82.5%.

With “sense UGAACUUCCCGCCGCCGUU / antisense AACGGCGGCGGGAAGUUCA”, the target inhibition was determined as 63.3%.

In the case of “sense CUUCCCGCCGCCGUUGUUG / antisense CAACAACGGCGGCGGGAAG”, the target inhibition was determined as 47.2%.

Consider “sense AGUCAAGUAACAACCGCGA / antisense UCGCGGUUGUUACUUGACU”, for which the target inhibition is 88.5%.

Consider “sense CAAAUACGAUUUAUCUAAU / antisense AUUAGAUAAAUCGUAUUUG”, for which the target inhibition stood at 87.8%.

On to “sense GUCGCCAGUCAAGUAACAA / antisense UUGUUACUUGACUGGCGAC”, for which the target inhibition was 44.9%.

Regarding “sense GAUGAUAAACCGGGCGCGG / antisense CCGCGCCCGGUUUAUCAUC”, the target inhibition came out at 52.9%.

Turning to “sense GUUGGCAGAAGCUAUGAAA / antisense UUUCAUAGCUUCUGCCAAC”, the target inhibition is 93.1%.

On to “sense GGAGGAGUUGUGUUUGUGG / antisense CCACAAACACAACUCCUCC”, for which the target inhibition stood at 93.2%.

On to “sense UCAGAGAGAUCCUCAUAAA / antisense UUUAUGAGGAUCUCUCUGA”, for which the target inhibition is 92.1%.

Regarding “sense GCUUCGAGCAGACAUGAUA / antisense UAUCAUGUCUGCUCGAAGC”, the target inhibition was 97.7%.

Turning to “sense ACGUGCAAAAAAAGCUCCC / antisense GGGAGCUUUUUUUGCACGU”, the target inhibition was 30%.

As to “sense UUGUUUUGGAGCACGGAAA / antisense UUUCCGUGCUCCAAAACAA”, the target inhibition came to 89.2%.

Consider “sense CCGUUGUUGUUUUGGAGCA / antisense UGCUCCAAAACAACAACGG”, for which the target inhibition was 89.3%.

As for “sense AGAGAUCCUCAUAAAGGCC / antisense GGCCUUUAUGAGGAUCUCU”, the target inhibition amounted to 38.7%.

With “sense UCAAGUAACAACCGCGAAA / antisense UUUCGCGGUUGUUACUUGA”, the target inhibition was determined as 88.5%.

“sense UGAAGUCUCUGAUUAAGUA / antisense UACUUAAUCAGAGACUUCA”: the target inhibition was found to be 91.9%.

For the substance “sense AUCCGCUGGAAGAUGGAAC / antisense GUUCCAUCUUCCAGCGGAU”, the target inhibition came to 23.4%.

On to “sense CAUUCUAUCCGCUGGAAGA / antisense UCUUCCAGCGGAUAGAAUG”, for which the target inhibition came to 93.2%.

Turning to “sense AUCGUGGAUUACGUCGCCA / antisense UGGCGACGUAAUCCACGAU”, the target inhibition is 44.2%.

As to “sense GCGGAGGAGUUGUGUUUGU / antisense ACAAACACAACUCCUCCGC”, the target inhibition amounted to 92.3%.

As to “sense GAAAAAUCAGAGAGAUCCU / antisense AGGAUCUCUCUGAUUUUUC”, the target inhibition stood at 86.8%.

On to “sense AUGGAACCGCUGGAGAGCA / antisense UGCUCUCCAGCGGUUCCAU”, for which the target inhibition worked out at 35.4%.

Regarding “sense AGAUCGUGGAUUACGUCGC / antisense GCGACGUAAUCCACGAUCU”, the target inhibition is 67%.

Regarding “sense GUCGCUCUGCCUCAUAGAA / antisense UUCUAUGAGGCAGAGCGAC”, the target inhibition was determined as 69.9%.

Consider “sense UCCGGAAGCGACCAACGCC / antisense GGCGUUGGUCGCUUCCGGA”, for which the target inhibition was 89.7%.

As for “sense UACCGGAAAACUCGACGCA / antisense UGCGUCGAGUUUUCCGGUA”, the target inhibition was 95.9%.

With “sense CCGGAUACUGCGAUUUUAA / antisense UUAAAAUCGCAGUAUCCGG”, the target inhibition was found to be 96.3%.

Take “sense CGCCGCCGUUGUUGUUUUG / antisense CAAAACAACAACGGCGGCG”: the target inhibition was 51.3%.

Take “sense ACGCAAGAAAAAUCAGAGA / antisense UCUCUGAUUUUUCUUGCGU”: the target inhibition was 87.6%.

For the substance “sense GGGCGCGGUCGGUAAAGUU / antisense AACUUUACCGACCGCGCCC”, the target inhibition amounted to 93.6%.

For “sense GAGCACGGAAAGACGAUGA / antisense UCAUCGUCUUUCCGUGCUC”, the target inhibition was 20.3%.

As to “sense AAAGGUCUUACCGGAAAAC / antisense GUUUUCCGGUAAGACCUUU”, the target inhibition came out at 71.1%.

Turning to “sense AAGUACCGAAAGGUCUUAC / antisense GUAAGACCUUUCGGUACUU”, the target inhibition was 64.3%.

For “sense UACUACACUCGGAUAUUUG / antisense CAAAUAUCCGAGUGUAGUA”, the target inhibition was 38.6%.

Take “sense AAAAUCAGAGAGAUCCUCA / antisense UGAGGAUCUCUCUGAUUUU”: the target inhibition stood at 88.4%.

Take “sense UGUGGACGAAGUACCGAAA / antisense UUUCGGUACUUCGUCCACA”: the target inhibition worked out at 77.8%.

On to “sense CGAAAGGUCUUACCGGAAA / antisense UUUCCGGUAAGACCUUUCG”, for which the target inhibition turned out to be 95%.

Take “sense GACAAAUACGAUUUAUCUA / antisense UAGAUAAAUCGUAUUUGUC”: the target inhibition turned out to be 86.5%.

“sense CCAGUCAAGUAACAACCGC / antisense GCGGUUGUUACUUGACUGG”: the target inhibition worked out at 66.1%.

For “sense AAGGCCCGGCGCCAUUCUA / antisense UAGAAUGGCGCCGGGCCUU”, the target inhibition was 23%.

Turning to “sense GAUAUGGGCUGAAUACAAA / antisense UUUGUAUUCAGCCCAUAUC”, the target inhibition stood at 91.9%.

As for “sense CUCGACGCAAGAAAAAUCA / antisense UGAUUUUUCUUGCGUCGAG”, the target inhibition worked out at 91%.

As to “sense GGAAAAAGAGAUCGUGGAU / antisense AUCCACGAUCUCUUUUUCC”, the target inhibition was 91.3%.

“sense CGACGCAAGAAAAAUCAGA / antisense UCUGAUUUUUCUUGCGUCG”: the target inhibition amounted to 95.9%.

On to “sense UGUUUGUGGACGAAGUACC / antisense GGUACUUCGUCCACAAACA”, for which the target inhibition was 35.9%.

As for “sense CGGCGCCAUUCUAUCCGCU / antisense AGCGGAUAGAAUGGCGCCG”, the target inhibition was determined as 53.8%.

Take “sense AGAGAUCGUGGAUUACGUC / antisense GACGUAAUCCACGAUCUCU”: the target inhibition stood at 82.8%.

“sense UGGAAGAUGGAACCGCUGG / antisense CCAGCGGUUCCAUCUUCCA”: the target inhibition was 16.6%.

“sense CCGCCGCCGUUGUUGUUUU / antisense AAAACAACAACGGCGGCGG”: the target inhibition is 60.8%.

“sense CGCCGUUGUUGUUUUGGAG / antisense CUCCAAAACAACAACGGCG”: the target inhibition worked out at 74.8%.

With “sense AACAACCGCGAAAAAGUUG / antisense CAACUUUUUCGCGGUUGUU”, the target inhibition was -5.7%.

As to “sense GUACCGAAAGGUCUUACCG / antisense CGGUAAGACCUUUCGGUAC”, the target inhibition turned out to be 80.4%.

On to “sense UUUGUGGACGAAGUACCGA / antisense UCGGUACUUCGUCCACAAA”, for which the target inhibition was -18%.

On to “sense AAAGAGAUCGUGGAUUACG / antisense CGUAAUCCACGAUCUCUUU”, for which the target inhibition is 47.4%.

For “sense GAUUAUGUCCGGUUAUGUA / antisense UACAUAACCGGACAUAAUC”, the target inhibition was determined as 96.8%.

Consider “sense ACGUCGCCAGUCAAGUAAC / antisense GUUACUUGACUGGCGACGU”, for which the target inhibition came out at 84.1%.

Turning to “sense UGGAGCACGGAAAGACGAU / antisense AUCGUCUUUCCGUGCUCCA”, the target inhibition turned out to be 52.2%.

Regarding “sense AGAGAGAUCCUCAUAAAGG / antisense CCUUUAUGAGGAUCUCUCU”, the target inhibition came to 92.6%.

In the case of “sense GCAUGCCAGAGAUCCUAUU / antisense AAUAGGAUCUCUGGCAUGC”, the target inhibition turned out to be 94.5%.

With “sense GCGCGGAGGAGUUGUGUUU / antisense AAACACAACUCCUCCGCGC”, the target inhibition came out at 86.8%.

For the substance “sense GACGAAGUACCGAAAGGUC / antisense GACCUUUCGGUACUUCGUC”, the target inhibition stood at 89.7%.

“sense AGUUGCGCGGAGGAGUUGU / antisense ACAACUCCUCCGCGCAACU”: the target inhibition was 93.6%.

For “sense ACGGAAAGACGAUGACGGA / antisense UCCGUCAUCGUCUUUCCGU”, the target inhibition was 73.8%.

Consider “sense GAGUUGUGUUUGUGGACGA / antisense UCGUCCACAAACACAACUC”, for which the target inhibition worked out at 95.3%.

As to “sense GGAAAGACGAUGACGGAAA / antisense UUUCCGUCAUCGUCUUUCC”, the target inhibition stood at 87.6%.

Turning to “sense CCGGUUAUGUAAACAAUCC / antisense GGAUUGUUUACAUAACCGG”, the target inhibition is 41.6%.

The values above are taken from the OligoGym collection.
